Laboratory results taken from patent US20250057743A1, “Oral Care Compositions Comprising Dicarboxylic Acid” (The Procter & Gamble Company, priority 2020, published 2025).

Legend:
Slurry pH of composition = assay type: physicochemical; conditions: Table 10, treatments of the enamel softening study (1:3 slurry of toothpaste to water)
Description: The pH of the oral care compositions as described herein can be from about 4 to about 7, from about 4 to about 6, from about 4.5 to about 6.5, or from about 4.5 to about 5.5. The pH of a mouthrinse solution can be determined as the pH of the neat solution. The pH of a dentifrice composition can be determined as a slurry pH, which is the pH of a mixture of the dentifrice composition and water, such as a 1:4, 1:3, or 1:2 mixture of the dentifrice composition and water.

[1] = human, 1 %
Description: The enamel softening method is used to determine the potential of oral care compositions to damage (or not to damage) dental enamel with repeated exposure.
A core of sound human enamel with a diameter of 3-4 mm was extracted from whole human teeth. The cores were mounted in dental acrylic and the surfaces were ground using 600 grit paper. Increasingly fine lapping papers were then used to polish the surface to a 1 um polish. Samples were sonicated in deionized water for 30 min. Enamel specimens were then rinsed with deionized water and wiped to remove any residual polish. Each enamel specimen was inspected and samples with large cracks or uneven calcification were discarded. […]
Also on the day before the experiment, the Vickers hardness of each enamel specimen was measured using a hardness indenter at three separate locations spread across the enamel surface. A 50g load was applied for 10 seconds, and the diagonal lengths of the resulting indents were measured using a 20× magnification objective. […]
On the day following the cycling experiment, the post-cycling hardness was obtained for each specimen using a similar procedure to that described for the pre-cycling hardness measurements. The change in hardness was calculated for each specimen by subtracting the pre-cycling hardness from the post-cycling hardness measurement. […]

Slurry pH (Slurry pH of composition): 2.19
Δ SMH (change in surface microhardness) [1]: 175.68
SMILES: O=C(O)CC(O)(CC(=O)O)C(=O)O [1% Citric Acid, citric acid]
